Structures can show the parent of a compound that is named as a salt. Where two headings read alike, the source gives them in different places.
Assays:
dopamine D2 receptor = target: T1, dopamine D2 receptor (Homo sapiens, UniProt P14416); assay: Competitive inhibition test using radioligands ([3H]-sulpiride), D2 receptor; format: binding; conditions: for D2 Receptor Displacement (%) / inhibition: [3H]-sulpiride; for inhibition: read-out: D2 Receptor Displacement (%); for Ki: [3H]-sulpiride competition, HEK-293 cells, read-out: KiD2R
T1 construct: expressed in transfected cells; host or cells: Human embryonic kidney-293 cells
T1 sequence (P14416 whole entry): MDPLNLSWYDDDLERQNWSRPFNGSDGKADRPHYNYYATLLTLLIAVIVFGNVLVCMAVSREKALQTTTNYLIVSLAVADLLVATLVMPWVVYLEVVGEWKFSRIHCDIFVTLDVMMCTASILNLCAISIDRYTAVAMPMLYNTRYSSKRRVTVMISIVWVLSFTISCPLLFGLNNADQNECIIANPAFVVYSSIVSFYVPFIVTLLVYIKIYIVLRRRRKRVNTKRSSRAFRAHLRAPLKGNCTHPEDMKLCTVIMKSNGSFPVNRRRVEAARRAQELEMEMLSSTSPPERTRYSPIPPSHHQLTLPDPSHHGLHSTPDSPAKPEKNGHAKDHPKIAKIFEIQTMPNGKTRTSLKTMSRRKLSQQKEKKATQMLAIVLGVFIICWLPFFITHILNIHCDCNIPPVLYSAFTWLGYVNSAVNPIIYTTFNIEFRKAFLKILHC
Protocol: (§2) Human embryonic kidney-293 cells were cultured in fresh MEM medium containing 10% fetal bovine serum, 100 units of penicillin, and 100 μg/mL streptomycin at 37° C. under 5% CO2. Cells were transfected with DNA plasmids of dopamine D2 and D3 receptors respectively by using polyethylenimine. After transfection for 4 hours, medium was replaced with fresh MEM medium containing fetal bovine serum and the cells were further cultured for 24 hours. The cells were seeded into 24-well plates and cultured for 14-16 hours or overnight. After the medium was discarded, the cells were rinsed with pre-cooled serum-free MEM. Radioligand ([^3H]-sulpiride) and various concentrations of compounds were added into the adherent cells, and incubated in a bath at 4° C. for 150 minutes. The cells were rinsed three times with pre-cooled MEM containing 10 mM HEPES to remove unbound ligands. After the medium was completely removed, the cells were lysed with 1% sodium lauryl sulfate. The remaining radioligands were detected with a liquid scintillation counter to calculate the relative amount of bound compounds.

[1] = Solubility assay in anhydrous ethanol; format: physicochemical; conditions: organic solvent or mixture
Text: (§1) Solubility Assay of the D3 Receptor-Selective Ligand

[2] = test system: 6-OHDA-induced Parkinson's disease rats; assay: Rotarod assay in 6-hydroxydopamine-induced Parkinson's disease rats; format: in vivo, Sprague Dawley (SD) rats
Protocol: Experimental Sprague Dawley (SD) rats were randomly divided into an experimental group and a control group. After repeated behavior detection confirmed that there was no rotational behavior, the experiment was performed. Experimental group: rats were anesthetized with a mixture of xylazine (15 mg/kg, i.p.) and ketamine (100 mg/kg, i.p.), and then desipramine hydrochloride (25 mg/kg, s.c.) were used to protect noradrenergic neurons. 6 μg of 6-hydroxydopamine was dissolved in 2.3 μL of 0.9% sterile saline, and injected into the cerebral substantia nigra (antero-posterior −5.4 mm, […] from the bregma which was used as a zero coordinate) at a rate of 0.5 μL/min by using cerebral stereotaxic surgery. Rats in the control group were injected with the same dose of 0.9% sterile saline. After injection, the syringe needle was left in rats for 5 minutes before the needle was slowly withdrawn. After the rats awakened, they were placed in animal facilities for behavioral model evaluation to ensure that 6-hydroxydopamine induced the formation of a model with movement disorders and emotional/motivational disorders. Because hunger is prone to occur as a result of dopamine damage of the midbrain substantia nigra, 20% of rats were given high-calorie food for 1-2 weeks. After 19 days, the D3 receptor-selective ligand was continuously injected intraperitoneally for 3 days. Rats were allowed to accommodate the rotarod on days 19-20, and a rotarod assay was performed on days 21-22.

[3] = Solubility assay in water; format: physicochemical
Text: as §1

dopamine D3 receptor [4] = target: T2, dopamine D3 receptor (Homo sapiens, UniProt P35462); assay: cell-based
T2 sequence (P35462 whole entry): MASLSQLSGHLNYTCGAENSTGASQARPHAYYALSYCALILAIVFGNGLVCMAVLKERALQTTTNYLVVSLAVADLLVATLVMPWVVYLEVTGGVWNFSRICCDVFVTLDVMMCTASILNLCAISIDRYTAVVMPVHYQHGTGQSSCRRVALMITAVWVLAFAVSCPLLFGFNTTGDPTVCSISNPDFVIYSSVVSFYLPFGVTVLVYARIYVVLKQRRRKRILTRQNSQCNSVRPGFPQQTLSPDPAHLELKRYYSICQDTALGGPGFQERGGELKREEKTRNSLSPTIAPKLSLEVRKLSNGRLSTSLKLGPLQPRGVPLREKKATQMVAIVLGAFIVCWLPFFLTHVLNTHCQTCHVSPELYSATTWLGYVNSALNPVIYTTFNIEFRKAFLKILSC
Protocol: as §2

dopamine D3 receptor [5] = target: T2, dopamine D3 receptor
Protocol: as §2

[6] = arylpiperazine-phthalimide compounds at 100 nM, HEK-293 cells (Table 1)
[7] = arylpiperazine-arylurea compounds at 100 nM, HEK-293 cells (Table 2)

O=C1c2ccccc2C(=O)N1CCCCN1CCN(c2ccc(Cl)cc2)CC1 [3i•HCl, 2-(4-(4-(4-chlorophenyl)piperazin-1-yl)butyl)isoindoline-1,3-dione]
D2 Receptor Displacement (%) (dopamine D2 receptor; [6]): 16.3 ± 4.2%

O=C1c2ccccc2C(=O)N1CCCCN1CCN(c2ccc(Cl)cc2Cl)CC1 [3k•HCl, 2-(4-(4-(2,4-dichlorophenyl)piperazin-1-yl)butyl)isoindoline-1,3-dione]
inhibition (dopamine D2 receptor; [6]): 30.2 ± 3.4%

O=C1c2ccccc2C(=O)N1CCCCN1CCN(c2cccc(C(F)(F)F)c2)CC1 [3p•HCl, 2-(4-(4-(3-(trifluoromethyl)phenyl)piperazin-1-yl)butyl)isoindoline-1,3-dione]
D2 Receptor Displacement (%) (dopamine D2 receptor; [6]): 37.9 ± 2.8%

O=C(NCCCCN1CCN(c2ccc(Cl)cc2)CC1)Nc1ccc2ccccc2n1 [7i•HCl, 1-(4-(4-(4-chlorophenyl)piperazin-1-yl)butyl)-3-(quinolin-2-yl)urea]
inhibition (dopamine D2 receptor; [7]): 13.4 ± 8.5%

O=C(NCCCCN1CCN(c2ccc(Cl)cc2)CC1)Nc1cnc2ccccc2c1 [8i•HCl, 1-(4-(4-(4-chlorophenyl)piperazin-1-yl)butyl)-3-(quinolin-3-yl)urea]
Ki (dopamine D2 receptor): 53100 nM | D2 Receptor Displacement (%) (dopamine D2 receptor; [7]): 15.2 ± 1.6% | solubility ([1]; 8.53 mg/mL): < 8530 µg/mL | solubility ([1]; 25.6 mg/mL): < 8530 µg/mL | effect compared with apomorphine (positive control drug) ([2]; 6-hydroxydopamine rats): comparable to the effect of apomorphine | motor dysfunction induced by 6-hydroxydopamine ([2]; intraperitoneal for 3 days): significantly improved | Solubility in water ([3]; 1 mg/mL): + (+ indicates that the compound was completely dissolved) | Solubility in water ([3]; 3 mg/mL): + (+ indicates that the compound was completely dissolved) | Solubility in water ([3]; 6 mg/mL): + (+ indicates that the compound was completely dissolved) | Solubility in water ([3]; 12 mg/mL): + (+ indicates that the compound was completely dissolved) | Ki (dopamine D3 receptor [4]): 14.3 nM

O=C(NCCCCN1CCN(c2cccc(Cl)c2Cl)CC1)Nc1cnc2ccccc2c1 [8j•HCl, 1-(4-(4-(2,3-dichlorophenyl)piperazin-1-yl)butyl)-3-(quinolin-3-yl)urea]
inhibition (dopamine D2 receptor; [7]): 4.8 ± 4.3%

O=C(NCCCCN1CCN(c2cc(C(F)(F)F)ccc2F)CC1)Nc1cnc2ccccc2c1 [8n•HCl, 1-(4-(4-(2-fluoro-5-(trifluoromethyl)phenyl)piperazin-1-yl)butyl)-3-(quinolin-3-yl)urea]
D2 Receptor Displacement (%) (dopamine D2 receptor; [7]): 10.7 ± 4.0%

O=C(NCCCCN1CCN(c2cccc(C(F)(F)F)c2)CC1)Nc1cnc2ccccc2c1 [8p•HCl, 1-(4-(4-(3-(trifluoromethyl)phenyl)piperazin-1-yl)butyl)-3-(quinolin-3-yl)urea]
D2 Receptor Displacement (%) (dopamine D2 receptor; [7]): 84.1 ± 1.8%

O=C(NCCCCN1CCN(c2ccc(Cl)cc2)CC1)Nc1nc2ccccc2s1 [21i•HCl, 1-(benzothiazol-2-yl)-3-(4-(4-(4-chlorophenyl)piperazin-1-yl)butyl)urea]
D2 Receptor Displacement (%) (dopamine D2 receptor; [7]): 33.4 ± 5.9%

O=C(NCCCCN1CCN(c2cccc(Cl)c2Cl)CC1)Nc1nc2ccccc2s1 [21j•HCl, 1-(benzothiazol-2-yl)-3-(4-(4-(2,3-dichlorophenyl)piperazin-1-yl)butyl)urea]
D2 Receptor Displacement (%) (dopamine D2 receptor; [7]): 52.1 ± 2.0%

O=C(NCCCCN1CCN(c2ccc(Cl)cc2Cl)CC1)Nc1nc2ccccc2s1 [21k•HCl, 1-(benzothiazol-2-yl)-3-(4-(4-(2,4-dichlorophenyl)piperazin-1-yl)butyl)urea]
D2 Receptor Displacement (%) (dopamine D2 receptor; [7]): 19.0 ± 1.4%

O=C(NCCCCN1CCN(c2cccc(Cl)c2Cl)CC1)c1cc2ccccc2[nH]1 [31j•HCl, N-(4-(4-(2,3-dichlorophenyl)piperazin-1-yl)butyl)-1H-indole-2-carboxamide, reference compound]
Ki (dopamine D3 receptor [5]): 15.6 nM

O=C(NCCCCN1CCN(c2ccc(Cl)cc2Cl)CC1)c1cc2ccccc2[nH]1 [31k•HCl, N-(4-(4-(2,4-dichlorophenyl)piperazin-1-yl)butyl)-1H-indole-2-carboxamide, reference compound]
Ki (dopamine D2 receptor): > 23900 nM

O=C1c2ccccc2C(=O)N1CCCCN1CCN(c2ccccc2F)CC1 [Compound 3a, 2-(4-(4-(2-fluorophenyl)piperazin-1-yl)butyl)isoindoline-1,3-dione]
inhibition (dopamine D2 receptor; [6]): 31.8 ± 3.3%

O=C1c2ccccc2C(=O)N1CCCCN1CCN(c2ccc(F)cc2)CC1 [Compound 3c, 2-(4-(4-(4-fluorophenyl)piperazin-1-yl)butyl)isoindoline-1,3-dione]
inhibition (dopamine D2 receptor; [6]): -6.3 ± 4%

O=C1c2ccccc2C(=O)N1CCCCN1CCN(c2cccc(F)c2F)CC1 [Compound 3d, 2-(4-(4-(2,3-fluorophenyl)piperazin-1-yl)butyl)isoindoline-1,3-dione]
Ki (dopamine D2 receptor): 2160 nM | D2 Receptor Displacement (%) (dopamine D2 receptor; [6]): 17.7 ± 3.7% | Ki (dopamine D3 receptor [5]): 19.3 nM

O=C1c2ccccc2C(=O)N1CCCCN1CCN(c2ccc(F)cc2F)CC1 [Compound 3e, 2-(4-(4-(2,4-fluorophenyl)piperazin-1-yl)butyl)isoindoline-1,3-dione]
D2 Receptor Displacement (%) (dopamine D2 receptor; [6]): 4.8 ± 6.5%

O=C1c2ccccc2C(=O)N1CCCCN1CCN(c2c(F)cccc2F)CC1 [Compound 3f, 2-(4-(4-(2,6-fluorophenyl)piperazin-1-yl)butyl)isoindoline-1,3-dione]
D2 Receptor Displacement (%) (dopamine D2 receptor; [6]): 10.3 ± 6.1%

O=C1c2ccccc2C(=O)N1CCCCN1CCN(c2ccccc2Cl)CC1 [Compound 3g, 2-(4-(4-(2-chlorophenyl)piperazin-1-yl)butyl)isoindoline-1,3-dione]
inhibition (dopamine D2 receptor; [6]): 28.7 ± 3.3%

O=C1c2ccccc2C(=O)N1CCCCN1CCN(c2cccc(Cl)c2)CC1 [Compound 3h, 2-(4-(4-(3-chlorophenyl)piperazin-1-yl)butyl)isoindoline-1,3-dione]
inhibition (dopamine D2 receptor; [6]): 64.8 ± 3.5%

O=C1c2ccccc2C(=O)N1CCCCN1CCN(c2ccc(Cl)cc2)CC1 [Compound 3i, 2-(4-(4-(4-chlorophenyl)piperazin-1-yl)butyl)isoindoline-1,3-dione]
D2 Receptor Displacement (%) (dopamine D2 receptor; [6]): 59.2 ± 18.3%

O=C1c2ccccc2C(=O)N1CCCCN1CCN(c2cccc(Cl)c2Cl)CC1 [Compound 3j, 2-(4-(4-(2,3-dichlorophenyl)piperazin-1-yl)butyl)isoindoline-1,3-dione]
inhibition (dopamine D2 receptor; [6]): 70.3 ± 2.7%

O=C1c2ccccc2C(=O)N1CCCCN1CCN(c2ccc(Cl)cc2F)CC1 [Compound 3m, 2-(4-(4-(4-chloro-2-fluorophenyl)piperazin-1-yl)butyl)isoindoline-1,3-dione]
inhibition (dopamine D2 receptor; [6]): 2.8 ± 12%

O=C1c2ccccc2C(=O)N1CCCCN1CCN(c2cc(C(F)(F)F)ccc2F)CC1 [Compound 3n, 2-(4-(4-(2-fluoro-5-(trifluoromethyl)phenyl)piperazin-1-yl)butyl)isoindoline-1,3-dione]
inhibition (dopamine D2 receptor; [6]): -4.7 ± 7.8%

O=C1c2ccccc2C(=O)N1CCCCN1CCN(c2cccc(C(F)(F)F)c2)CC1 [Compound 3p, 2-(4-(4-(3-(trifluoromethyl)phenyl)piperazin-1-yl)butyl)isoindoline-1,3-dione]
inhibition (dopamine D2 receptor; [6]): 44 ± 1.6%

O=C(NCCCCN1CCN(c2cc(C(F)(F)F)ccc2F)CC1)Nc1cnc2ccccc2c1 [Compound 8n, 1-(4-(4-(2-fluoro-5-(trifluoromethyl)phenyl)piperazin-1-yl)butyl)-3-(quinolin-3-yl)urea]
D2 Receptor Displacement (%) (dopamine D2 receptor; [7]): 24.9 ± 1.8%

O=C(NCCCCN1CCN(c2cccc(C(F)(F)F)c2)CC1)Nc1cnc2ccccc2c1 [Compound 8p, 1-(4-(4-(3-(trifluoromethyl)phenyl)piperazin-1-yl)butyl)-3-(quinolin-3-yl)urea]
D2 Receptor Displacement (%) (dopamine D2 receptor; [7]): −6.7 ± 4.2%

O=C(NCCCCN1CCN(c2ccc(Cl)cc2)CC1)Nc1cc2ccccc2cn1 [Compound 11i, 1-(4-(4-(4-chlorophenyl)piperazin-1-yl)butyl)-3-(isoquinolin-3-yl)urea]
inhibition (dopamine D2 receptor; [7]): -14.7 ± 1.8%

O=C(NCCCCN1CCN(c2ccc(Cl)cc2)CC1)Nc1nc2ccccc2s1 [Compound 21i, 1-(benzothiazol-2-yl)-3-(4-(4-(4-chlorophenyl)piperazin-1-yl)butyl)urea]
inhibition (dopamine D2 receptor; [7]): 36.8 ± 6.5%

O=C(NCCCCN1CCN(c2cccc(Cl)c2Cl)CC1)Nc1nc2ccccc2s1 [Compound 21j, 1-(benzothiazol-2-yl)-3-(4-(4-(2,3-dichlorophenyl)piperazin-1-yl)butyl)urea]
inhibition (dopamine D2 receptor; [7]): 35.5 ± 3.4%

O=C(NCCCCN1CCN(c2ccc(Cl)cc2Cl)CC1)Nc1nc2ccccc2s1 [Compound 21k, 1-(benzothiazol-2-yl)-3-(4-(4-(2,4-dichlorophenyl)piperazin-1-yl)butyl)urea]
D2 Receptor Displacement (%) (dopamine D2 receptor; [7]): 40.8 ± 5.6%

O=C(NCCCCN1CCN(c2cccc(Cl)c2Cl)CC1)c1cc2ccccc2[nH]1 [Compound 31j, N-(4-(4-(2,3-dichlorophenyl)piperazin-1-yl)butyl)-1H-indole-2-carboxamide, reference compound]
Ki (dopamine D3 receptor [4]): 6210 nM

CCN1CCCC1CNC(=O)c1cc(S(N)(=O)=O)ccc1OC (stereo not drawn) [sulpiride, reference compound]
inhibition (dopamine D2 receptor; [6]): 92.2 ± 0.1%
